Converted amounts (≈) assume the structure as drawn.
Assays:
[1] = tested on: Candida parapsilosis 937 A; assay: Minimum Inhibitory Concentration (MIC) by broth dilution in microtitre tray, Candida parapsilosis 937 A; assay type: cell-based; details: 37° C., inoculum 10^5
Procedure: (§1) The Minimum Inhibitory Concentration (MIC) was determined by diluting the test compound in a broth medium in a microtitre tray. The organisms, which had been grown previously in a broth medium (yeast nitrogen base+1% glucose), were diluted and added to the wells to provide a final inoculum of approximately 10^5 colony-forming units per well. The trays were incubated at 37° C. and the turbidity of each well noted at intervals. The MIC was taken as the lowest concentration (in μg/ml) which prevented significant growth. |Minimum Inhibitory Concentration (μg/ml) |(determined after 2 and 3 days incubation) | *Inoculum 10^5 cells/ml

[2] = tested on: Candida albicans 73/079; assay: Minimum Inhibitory Concentration (MIC) by broth dilution in microtitre tray, Candida albicans 73/079; assay type: cell-based; details: 37° C., inoculum 10^5
Procedure: as §1

[3] = 48 h, determined after 2 days incubation
[4] = 72 h, determined after 3 days incubation
[5] = 48 h, Candida albicans 73/079, determined after 2 days incubation
[6] = 72 h, Candida albicans 73/079, determined after 3 days incubation

Row | SMILES | MIC [1, 3] | MIC [1, 4] | MIC [2, 5] | MIC [2, 6]
1 | C[C@@H]1[C@H](O)[C@@H](C)/C=C/C=C/C=C/C=C/C=C/C=C/C=C/[C@H](O[C@@H]2O[C@H](C)[C@@H](O)[C@H](N)[C@@H]2O)C[C@@H]2OC(=C[C@H](O)[C@H]2C(=O)O)C[C@@H](O)C[C@@H](O)[C@H](O)CC[C@@H](O)C[C@@H](O)CC(=O)O[C@H]1C [Example E6, 13,14-Anhydroamphotericin B] | 4 µg/mL (≈ 4.41 µM) | 8 µg/mL (≈ 8.83 µM) | 2 µg/mL (≈ 2.21 µM) | 4 µg/mL (≈ 4.41 µM)
2 | C[C@@H]1[C@H](O)[C@@H](C)/C=C/C=C/C=C/C=C/C=C/C=C/C=C/[C@H](O[C@@H]2O[C@H](C)[C@@H](O)[C@H](N)[C@@H]2O)C[C@@H]2OC(=C[C@H](O)[C@H]2CO)C[C@@H](O)C[C@@H](O)[C@H](O)CC[C@@H](O)C[C@@H](O)CC(=O)O[C@H]1C [Example E12] | 8 µg/mL (≈ 8.97 µM) | 16 µg/mL (≈ 17.9 µM) | 4 µg/mL (≈ 4.48 µM) | 8 µg/mL (≈ 8.97 µM)
3 | COC(=O)[C@H]1[C@@H]2C[C@@H](O[C@@H]3O[C@H](C)[C@@H](O)[C@H](N)[C@@H]3O)/C=C/C=C/C=C/C=C/C=C/C=C/C=C/[C@H](C)[C@@H](O)[C@@H](C)[C@H](C)OC(=O)C[C@H](O)C[C@H](O)CC[C@@H](O)[C@H](O)C[C@H](O)CC(=C[C@@H]1O)O2 [Example E10] | 32 µg/mL (≈ 34.8 µM) | 32 µg/mL (≈ 34.8 µM) | 16 µg/mL (≈ 17.4 µM) | 32 µg/mL (≈ 34.8 µM)

— patent US5116960A, “Amphotericin B derivatives” (Beecham Group p.l.c., priority 1988, dated 1992)
